Structures are written as SMILES.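 A five-concentration, 48-hour dose response in 96-well plates underlies each endpoint, interpolated linearly between surrounding concentrations. GI50 = concentration required for 50% inhibition of growth.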 The source made the active and inactive calls. Rule as the data show it: active = GI50 up to about 1.1 µM and inactive = higher.

Some test systems named below: M14; HCT-15; Hs-578T; LOX IMVI; SF-539; CCRF-CEM; SR; HCT-116; ACHN; HCC 2998; SK-OV-3; T47D; NCI-H226; UACC-257; MDA-N; K562; CAKI-1; NCI/ADR-RES; SW-620; HOP-92.
Holding throughout (assay): growth of human tumour cells (NCI), 48 h

As for `CC1CN=C(NCc2ccccc2)S1` (centres undefined), the GI50 with M14 was > 100 µM (inactive); with HCT-15 it was over 100 µM; with Hs-578T it was > 100 µM (inactive); in the experiment on LOX IMVI it was > 100 µM (inactive); in the experiment on SF-539 it was > 100 µM (inactive); in the experiment with CCRF-CEM it was > 100 µM (inactive). Also, the GI50 in the experiment with SR was 29 µM (inactive); with HCT-116, > 100 µM (inactive); with ACHN it was > 100 µM (inactive); in the experiment with HCC 2998, > 100 µM (inactive); in the experiment with SK-OV-3, > 100 µM (inactive); in the experiment on T47D, > 100 µM (inactive). The GI50 is 86.7 µM (inactive) in the experiment with NCI-H226, > 100 µM (inactive) in the experiment with UACC-257, 28.4 µM (inactive) in the experiment with MDA-N and 48.2 µM (inactive) in the experiment with K562.

As to `O=C(c1cccs1)N(C(=O)N1CCCCC1)c1ccccc1`, the GI50 with M14 was > 100 µM (inactive); with HCT-15, over 100 µM; in the experiment with CAKI-1, > 100 µM (inactive); in the experiment on Hs-578T it was 84.7 µM (inactive); in the experiment with LOX IMVI it was > 100 µM (inactive); in the experiment on SF-539, > 100 µM (inactive). Moreover, the GI50 with CCRF-CEM, in the experiment on NCI/ADR-RES, with HCT-116, in the experiment on ACHN, with SK-OV-3 and with T47D was > 100 µM (inactive) throughout. Besides, the GI50 in the experiment on NCI-H226, in the experiment on UACC-257, in the experiment on MDA-N, with K562 and in the experiment with SW-620 was > 100 µM (inactive) in each case.

For the compound `CC1(C)CC2=NO[Se]3=C2C(=NO3)C1`, the GI50 in the experiment with M14 is 1.99 µM (inactive); with HCT-15 it was 0.811 µM; in the experiment on CAKI-1, 3.65 µM (inactive); in the experiment on Hs-578T, 4.35 µM (inactive); in the experiment on LOX IMVI it was 1.6 µM (inactive); with SF-539 it was 2.15 µM (inactive). In addition, the GI50 was 3.06 µM (inactive) in the experiment on CCRF-CEM; 0.485 µM (active) in the experiment on HCT-116; 1.72 µM (inactive) in the experiment on ACHN; 2.63 µM (inactive) with HOP-92; 5.19 µM (inactive) in the experiment on HCC 2998; 4.52 µM (inactive) in the experiment with SK-OV-3. In addition, the GI50 was 6.07 µM (inactive) in the experiment with T47D; 3.76 µM (inactive) in the experiment with NCI-H226; 2.17 µM (inactive) with UACC-257; 1.95 µM (inactive) in the experiment with MDA-N; 2.72 µM (inactive) in the experiment with K562; 3.16 µM (inactive) in the experiment on SW-620.

With `CCOC(=O)c1cc2nc3ccccc3c(=O)n2c2ccccc12`, the GI50 in the experiment on M14 is > 10 µM (inactive); in the experiment on HCT-15, over 10 µM; in the experiment with CAKI-1, > 10 µM (inactive); in the experiment on Hs-578T, > 10 µM (inactive); in the experiment with LOX IMVI, > 10 µM (inactive); in the experiment on SF-539, > 10 µM (inactive). Further, the GI50 in the experiment with CCRF-CEM, in the experiment with NCI/ADR-RES, with HCT-116, in the experiment with ACHN, in the experiment with HOP-92 and in the experiment on HCC 2998 was > 10 µM (inactive) in each case. For the same compound, the GI50 in the experiment on SK-OV-3, with T47D, in the experiment on NCI-H226, with UACC-257, in the experiment on MDA-N and with K562 was > 10 µM (inactive) each time. Also, the GI50 with SW-620 was > 10 µM (inactive).

As to `COc1cc2c(cc1OC)C(=O)/C(=C/c1cc(Cl)cc(Cl)c1)C2`, the GI50 was 4.18 µM (inactive) in the experiment with M14; 3.03 µM in the experiment on HCT-15; 4.33 µM (inactive) in the experiment on CAKI-1; 11.3 µM (inactive) with Hs-578T; 4.24 µM (inactive) with LOX IMVI; 2.49 µM (inactive) with SF-539. The GI50 in the experiment with CCRF-CEM is 2.07 µM (inactive); with NCI/ADR-RES, 1.76 µM (inactive); with HCT-116, 3.58 µM (inactive); in the experiment with ACHN, 7.91 µM (inactive); in the experiment with HOP-92, 18.7 µM (inactive); in the experiment on HCC 2998 it was 0.351 µM (active). Moreover, the GI50 in the experiment with T47D was 7.4 µM (inactive); in the experiment with NCI-H226, 3.87 µM (inactive); in the experiment with UACC-257, 26 µM (inactive); with MDA-N it was 1.57 µM (inactive); with K562, 0.859 µM (active); in the experiment with SW-620, 3.79 µM (inactive).

For `CCC/C=C/C=C/C1CC(O)C(O)C(=O)C1CO` (centres undefined), the GI50 in the experiment with M14 was > 100 µM (inactive); with HCT-15, over 100 µM; in the experiment on CAKI-1, > 100 µM (inactive); with Hs-578T, > 100 µM (inactive); with LOX IMVI, > 100 µM (inactive); in the experiment with SF-539 it was > 100 µM (inactive). For the same compound, the GI50 in the experiment on CCRF-CEM, with NCI/ADR-RES, in the experiment with HCT-116, in the experiment on ACHN, in the experiment on HOP-92 and in the experiment with HCC 2998 was > 100 µM (inactive) each time. Also, the GI50 with SK-OV-3, with T47D, in the experiment on NCI-H226, in the experiment with UACC-257, in the experiment with MDA-N and with K562 was > 100 µM (inactive) throughout. Moreover, in the experiment on SW-620, the GI50 is > 100 µM (inactive).

Regarding `C#CCOC(=O)C(N)C(C)O` (centres undefined), the GI50 in the experiment on M14, in the experiment on CAKI-1, in the experiment with Hs-578T, in the experiment on LOX IMVI, with CCRF-CEM and in the experiment with NCI/ADR-RES was > 100 µM (inactive) in each case. The GI50 in the experiment on HCT-116, in the experiment with ACHN, in the experiment with HOP-92, in the experiment on SK-OV-3, in the experiment with T47D and with NCI-H226 was > 100 µM (inactive) in each case. The GI50 with UACC-257, in the experiment on MDA-N, with K562 and in the experiment on SW-620 was > 100 µM (inactive) each time.

For the compound `CC(=O)Nc1ccc2nc(N)n[n+]([O-])c2c1`, the GI50 is > 100 µM (inactive) with M14; over 100 µM with HCT-15; > 100 µM (inactive) with CAKI-1; 92.3 µM (inactive) in the experiment with Hs-578T; > 100 µM (inactive) in the experiment on LOX IMVI; > 100 µM (inactive) in the experiment on SF-539. Also, the GI50 in the experiment with CCRF-CEM, with NCI/ADR-RES, in the experiment with SR, in the experiment with HCT-116, in the experiment with ACHN and in the experiment on SK-OV-3 was > 100 µM (inactive) each time. Also, the GI50 in the experiment with T47D is 79.8 µM (inactive); with NCI-H226, > 100 µM (inactive); in the experiment with UACC-257 it was > 100 µM (inactive); in the experiment on MDA-N, > 100 µM (inactive); in the experiment on K562, > 100 µM (inactive); in the experiment on SW-620 it was > 100 µM (inactive).

`O=C(Nn1c(-c2ccccc2)nc2ccccc2c1=O)c1cccc([N+](=O)[O-])c1`: the GI50 in the experiment with M14 is > 100 µM (inactive); in the experiment with HCT-15, 55.7 µM; with Hs-578T it was 95.3 µM (inactive); in the experiment with LOX IMVI, > 100 µM (inactive); with SF-539, > 100 µM (inactive); in the experiment on CCRF-CEM, 52.5 µM (inactive). Moreover, the GI50 in the experiment on SR is 47.2 µM (inactive); with HCT-116, > 100 µM (inactive); with ACHN, 86.7 µM (inactive); in the experiment with HOP-92, 35.2 µM (inactive); with HCC 2998, > 100 µM (inactive); in the experiment on SK-OV-3, > 100 µM (inactive). The GI50 with T47D was < 0.01 µM (active); in the experiment with NCI-H226, 52.8 µM (inactive); with UACC-257, > 100 µM (inactive); with MDA-N, > 100 µM (inactive); in the experiment with K562, > 100 µM (inactive); with SW-620 it was > 100 µM (inactive).

Take `c1cc2c(cc1NC1=NCCO1)CCCC2`: the GI50 with M14 was 2.88 µM (inactive); with HCT-15 it was 3.45 µM; in the experiment on CAKI-1, 18.6 µM (inactive); in the experiment on Hs-578T, 4.6 µM (inactive); in the experiment with LOX IMVI, 3.13 µM (inactive); in the experiment on SF-539, 2.74 µM (inactive). The GI50 was 2.72 µM (inactive) in the experiment with CCRF-CEM; 2.18 µM (inactive) in the experiment with NCI/ADR-RES; 2.76 µM (inactive) in the experiment on HCT-116; 7.59 µM (inactive) with ACHN; 2.86 µM (inactive) in the experiment with HOP-92; 2.55 µM (inactive) in the experiment with HCC 2998. Also, the GI50 with SK-OV-3 was 4.38 µM (inactive); in the experiment on T47D, 10.6 µM (inactive); in the experiment on NCI-H226, 3.37 µM (inactive); in the experiment on UACC-257, 3.77 µM (inactive); in the experiment on MDA-N it was 1.41 µM (inactive); in the experiment on K562, 2.45 µM (inactive). Further, in the experiment with SW-620, the GI50 was 9.73 µM (inactive).

`COC(C/C=C\C=C\CC/C=C/CC(C)/C=C/C(=C\C(=O)O)CC(=O)O)/C(C)=C\C=C(/C)C(=O)O` (centres undefined): the GI50 was > 100 µM (inactive) in the experiment with M14; over 100 µM in the experiment with HCT-15; > 100 µM (inactive) in the experiment on CAKI-1; 61.7 µM (inactive) in the experiment with Hs-578T; > 100 µM (inactive) with CCRF-CEM; > 100 µM (inactive) with SR. For the same compound, the GI50 with HCT-116, in the experiment with HOP-92, in the experiment with HCC 2998, in the experiment on SK-OV-3, in the experiment on UACC-257 and with MDA-N was > 100 µM (inactive) in each case. The GI50 with SW-620 is > 100 µM (inactive).

As for `CC1(C)CC(=O)C2=C(C1)NC(=S)C(C#N)C2c1ccccc1` (centres undefined), the GI50 in the experiment on M14 was > 100 µM (inactive); in the experiment with HCT-15, over 100 µM; in the experiment with CAKI-1 it was > 100 µM (inactive); with Hs-578T it was > 100 µM (inactive); in the experiment with LOX IMVI, > 100 µM (inactive); in the experiment on SF-539 it was > 100 µM (inactive). In addition, the GI50 with CCRF-CEM, in the experiment on NCI/ADR-RES, in the experiment with HCT-116, in the experiment with ACHN, in the experiment with HOP-92 and with HCC 2998 was > 100 µM (inactive) in each case. Further, the GI50 was > 100 µM (inactive) in the experiment on SK-OV-3; > 100 µM (inactive) in the experiment on NCI-H226; > 100 µM (inactive) in the experiment on UACC-257; > 100 µM (inactive) in the experiment on MDA-N; 75.9 µM (inactive) in the experiment on K562; > 100 µM (inactive) with SW-620.

Values taken from ChEMBL document CHEMBL1201862, “PubChem BioAssay data set” (2004).
